# Test results from ChEMBL document CHEMBL3044737, “Synthesis of biotinylated 18-glycyrrhetinic acid and its effect on tumor cells activity” (Med Chem Res, 2009).
# Calls of active or inactive are those of the source. The rule behind the calls is not given here.
# How the values were obtained:
# Bel-7402 [1] = assay: Cytotoxicity against Homo sapiens (human) Bel7402 cells assessed as reduction of cell number up to 250 umol/L after 12 hr by MTT assay; type: functional, cell-based
# Bel-7402 [2] = assay: Cytotoxicity against Homo sapiens (human) Bel7402 cells assessed as reduction of cell number at 50 umol/L after 12 hr by MTT assay; type: functional, cell-based
# B16 [3] = assay: Cytotoxicity against Mus musculus (mouse) B16 cells assessed as reduction of cell number at 50 umol/L after 12 hr by MTT assay; type: functional, cell-based
# [4] = Stability of the compound in RPMI-1640 medium at 100 uM after 6 days; type: physicochemical; details: 144 h
# [5] = Stability of the compound in water at 100 uM after 24 hr; type: physicochemical; details: buffer
# B16 [6] = assay: Cytotoxicity against Mus musculus (mouse) B16 cells assessed as reduction of cell number up to 250 umol/L after 12 hr by MTT assay; type: functional, cell-based
# B16 [7] = assay: Cytotoxicity against Mus musculus (mouse) B16 cells assessed as reduction of cell number after 12 hr by MTT assay; type: functional, cell-based; details: B16, 12 h
# Bel-7402 [8] = assay: Cytotoxicity against Homo sapiens (human) Bel7402 cells assessed as reduction of cell number after 12 hr by MTT assay; type: functional, cell-based; details: Bel-7402, 12 h
Stability [4],Stability [5],SMILES,Activity (Bel-7402 [1]),Activity (Bel-7402 [2]),Activity (B16 [3]),Activity (B16 [6]),IC50 (B16 [7]) [µM],IC50 (Bel-7402 [8]) [µM]
Stable,Unstable,CC1(C)[C@@H](O)CC[C@]2(C)[C@H]3C(=O)C=C4[C@@H]5C[C@@](C)(C(=O)O)CC[C@]5(C)CC[C@@]4(C)[C@]3(C)CC[C@@H]12 [ENOXOLONE],Active,inactive,inactive,Active,,
Stable,Stable,CC1(C)[C@@H](O)CC[C@]2(C)[C@H]3C(=O)C=C4[C@@H]5C[C@@](C)(C(=O)NCCCCCCNC(=O)CCCC[C@@H]6SC[C@@H]7NC(=O)N[C@@H]76)CC[C@]5(C)CC[C@@]4(C)[C@]3(C)CC[C@@H]12,Active,inactive,inactive,Active,170,175
